Results reported in ChEMBL document CHEMBL1201861, “Genomics of Drug Sensitity in Cancer screening data, Wellcome Trust Sanger Institute”.
Where a name gives a salt, the structure may show the parent alone.

Key:
Assay in all cases: cells
Assay type in all cases: functional, cell-based, Homo sapiens
MPP-89 = test system: MPP-89;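 further: growth inhibition of human MPP-89 cells, read out with a cell viability assay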
Description: SANGER: Inhibition of human MPP-89 cell growth in a cell viability assay.

KU812 cell line = test system: KU812 cell line;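 further: growth inhibition of KU812 cells, read out with a cell viability assay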
Description: SANGER: Inhibition of human KU812 cell growth in a cell viability assay.

KALS-1 = test system: KALS-1;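 further: growth inhibition of KALS-1 cells, determined with a cell viability assay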
Description: SANGER: Inhibition of human KALS-1 cell growth in a cell viability assay.

MMAC-SF = test system: MMAC-SF;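 further: growth inhibition of human MMAC-SF cells, read out with a cell viability assay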
Description: SANGER: Inhibition of human MMAC-SF cell growth in a cell viability assay.

NKM-1 = test system: NKM-1;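 further: growth inhibition of NKM-1 cells, read out with a cell viability assay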
Description: SANGER: Inhibition of human NKM-1 cell growth in a cell viability assay.

CGTH-W-1 = test system: CGTH-W-1;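 further: growth inhibition of human CGTH-W-1 cells measured by cell viability assay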
Description: SANGER: Inhibition of human CGTH-W-1 cell growth in a cell viability assay.

EOL1 = test system: EOL1;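 further: growth inhibition of EoL-1 cells, read out by a cell viability assay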
Description: SANGER: Inhibition of human EoL-1-cell cell growth in a cell viability assay.

COR-L88 = test system: COR-L88;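 further: growth inhibition of COR-L88 cells, read out with a cell viability assay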
Description: SANGER: Inhibition of human COR-L88 cell growth in a cell viability assay.

D-392MG = test system: D-392MG
ML-2 = test system: ML-2;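 further: growth inhibition of ML-2 cells, measured with a cell viability readout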
Description: SANGER: Inhibition of human ML-2 cell growth in a cell viability assay.

ONS-76 = test system: ONS-76;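 further: growth inhibition of human ONS-76 cells, read out with a cell viability assay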
Description: SANGER: Inhibition of human ONS-76 cell growth in a cell viability assay.

LB831-BLC = test system: LB831-BLC;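 further: growth inhibition of LB831-BLC cells, read out with a cell viability assay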
Description: SANGER: Inhibition of human LB831-BLC cell growth in a cell viability assay.

LB2241-RCC = test system: LB2241-RCC;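 further: cell viability assay measuring how strongly the cultured human renal carcinoma line is prevented from growing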
Description: SANGER: Inhibition of human LB2241-RCC cell growth in a cell viability assay.

MHH-NB-11 = test system: MHH-NB-11;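 further: growth inhibition of human MHH-NB-11 cells, read out by a cell viability assay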
Description: SANGER: Inhibition of human MHH-NB-11 cell growth in a cell viability assay.

KGN = test system: KGN;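 further: growth inhibition of KGN cells, read out with a cell viability assay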
Description: SANGER: Inhibition of human KGN cell growth in a cell viability assay.

Becker = test system: Becker;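 further: growth inhibition of Becker cells, read out with a cell viability assay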
Description: SANGER: Inhibition of human Becker cell growth in a cell viability assay.

SW 962 = test system: SW 962;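 further: growth inhibition of human SW962 cells, read out by a cell viability assay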
Description: SANGER: Inhibition of human SW962 cell growth in a cell viability assay.

K562 = test system: K562
Description: SANGER: Inhibition of human K-562 cell growth in a cell viability assay.

VA-ES-BJ = test system: VA-ES-BJ;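 further: growth inhibition of the VA-ES-BJ cell line, read out by a cell viability assay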
Description: SANGER: Inhibition of human VA-ES-BJ cell growth in a cell viability assay.

ALL-PO = test system: ALL-PO;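 further: growth inhibition of ALL-PO cells, read out by a cell viability assay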
Description: SANGER: Inhibition of human ALL-PO cell growth in a cell viability assay.

LB373-MEL-D = test system: LB373-MEL-D;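 further: growth inhibition of the cell line, read out in a cell viability assay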
Description: SANGER: Inhibition of human LB373-MEL-D cell growth in a cell viability assay.

LB1047-RCC = test system: LB1047-RCC;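 further: inhibition of cell growth, determined with a cell viability assay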
Description: SANGER: Inhibition of human LB1047-RCC cell growth in a cell viability assay.

NCI-H1299 = test system: NCI-H1299;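 further: growth inhibition of human NCI-H1299 cells, read out by a cell viability assay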
Description: SANGER: Inhibition of human NCI-H1299 cell growth in a cell viability assay.

NMC-G1 = test system: NMC-G1;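 further: growth inhibition of the NMC-G1 cell line, measured with a cell viability read-out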
Description: SANGER: Inhibition of human NMC-G1 cell growth in a cell viability assay.

HH = test system: HH
Description: SANGER: Inhibition of human HH cell growth in a cell viability assay.

KP-N-YS = test system: KP-N-YS;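 further: cell viability assay measuring inhibition of cell line growth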
Description: SANGER: Inhibition of human KP-N-YS cell growth in a cell viability assay.

NCI-H526 = test system: NCI-H526;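 further: growth inhibition of the human NCI-H526 cell line, measured by a cell viability assay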
Description: SANGER: Inhibition of human NCI-H526 cell growth in a cell viability assay.

A101D = test system: A101D;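 further: growth inhibition of the cell line, measured with a viability assay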
Description: SANGER: Inhibition of human A101D cell growth in a cell viability assay.

KY821 = test system: KY821;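 further: growth inhibition of human KY821 cells, read out by a cell viability assay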
Description: SANGER: Inhibition of human KY821 cell growth in a cell viability assay.

A3-KAW = test system: A3-KAW;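 further: growth inhibition of human A3-KAW cells, read out with a cell viability assay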
Description: SANGER: Inhibition of human A3-KAW cell growth in a cell viability assay.

IST-SL1 = test system: IST-SL1;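 further: growth inhibition of human IST-SL1 cells, read out with a cell viability assay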
Description: SANGER: Inhibition of human IST-SL1 cell growth in a cell viability assay.

HC-1 = test system: HC-1;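 further: growth inhibition of HC-1 cells measured by a cell viability assay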
Description: SANGER: Inhibition of human HC-1 cell growth in a cell viability assay.

TE-5 = test system: TE-5;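 further: inhibition of cell growth, read out by a cell viability assay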
Description: SANGER: Inhibition of human TE-5 cell growth in a cell viability assay.

CCRF-CEM = test system: CCRF-CEM;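 further: inhibition of CCRF-CEM cell growth, measured by a cell viability assay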
Description: SANGER: Inhibition of human CCRF-CEM cell growth in a cell viability assay.

NCI-H1838 = test system: NCI-H1838;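 further: growth inhibition of NCI-H1838 cells, determined with a cell viability readout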
Description: SANGER: Inhibition of human NCI-H1838 cell growth in a cell viability assay.

EW-18 = test system: EW-18;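 further: growth inhibition of EW-18 cells, read out by a cell viability assay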
Description: SANGER: Inhibition of human EW-18 cell growth in a cell viability assay.

SK-UT-1 = test system: SK-UT-1;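 further: growth inhibition of SK-UT-1 cells, measured by a cell viability assay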
Description: SANGER: Inhibition of human SK-UT-1 cell growth in a cell viability assay.

KLE = test system: KLE;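 further: growth inhibition of human KLE cells, read out with a cell viability assay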
Description: SANGER: Inhibition of human KLE cell growth in a cell viability assay.

GI-ME-N = test system: GI-ME-N;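 further: growth inhibition of human GI-ME-N cells, read out with a cell viability assay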
Description: SANGER: Inhibition of human GI-ME-N cell growth in a cell viability assay.

HOP-62 = test system: HOP-62;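 further: cell growth inhibition determined with a viability assay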
Description: SANGER: Inhibition of human HOP-62 cell growth in a cell viability assay.

SK-PN-DW = test system: SK-PN-DW;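 further: growth inhibition measured with a viability assay on these cells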
Description: SANGER: Inhibition of human SK-PN-DW cell growth in a cell viability assay.

GR-ST = test system: GR-ST
Description: SANGER: Inhibition of human GR-ST cell growth in a cell viability assay.

NCI-H1581 = test system: NCI-H1581;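 further: cell growth inhibition read out by a viability assay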
Description: SANGER: Inhibition of human NCI-H1581 cell growth in a cell viability assay.

GB-1 = test system: GB-1;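 further: growth of GB-1 cells judged by a viability assay, IC50 marks the concentration inhibiting growth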
Description: SANGER: Inhibition of human GB-1 cell growth in a cell viability assay.

BE-13 = test system: BE-13;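 further: growth inhibition of human BE-13 cells, measured with a cell viability assay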
Description: SANGER: Inhibition of human BE-13 cell growth in a cell viability assay.

TGBC24TKB = test system: TGBC24TKB;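 further: growth inhibition of human TGBC24TKB cells, read out with a cell viability assay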
Description: SANGER: Inhibition of human TGBC24TKB cell growth in a cell viability assay.

ES8 = test system: ES8;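 further: growth inhibition of human ES8 cells, read out with a cell viability assay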
Description: SANGER: Inhibition of human ES8 cell growth in a cell viability assay.

KM12 = test system: KM12;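 further: KM12 cell growth inhibition, read out with a cell viability assay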
Description: SANGER: Inhibition of human KM12 cell growth in a cell viability assay.

COC1=CC(c2cc3ccccc3[nH]2)=N/C1=C\c1[nH]c(C)cc1C [OBATOCLAX MESYLATE]
IC50 (MPP-89; Homo sapiens, MPP-89): 0.463 µM | IC50 (KU812 cell line; Homo sapiens, KU812): 0.994 µM | IC50 (KALS-1; Homo sapiens, KALS-1): 0.6 µM | IC50 (MMAC-SF; Homo sapiens, MMAC-SF): 0.0767 µM | IC50 (NKM-1; Homo sapiens, NKM-1): < 0.0625 µM | IC50 (CGTH-W-1; Homo sapiens, CGTH-W-1): 0.399 µM | IC50 (EOL1; Homo sapiens, EOL1): 0.115 µM | IC50 (COR-L88; Homo sapiens, COR-L88): > 16 µM | IC50 (D-392MG; Homo sapiens, D-392MG): 1.6 µM | IC50 (ML-2; Homo sapiens, ML-2): 0.229 µM | IC50 (ONS-76; Homo sapiens, ONS-76): 0.0204 µM | IC50 (LB831-BLC; Homo sapiens, LB831-BLC): 0.444 µM | IC50 (LB2241-RCC; Homo sapiens, LB2241-RCC): 0.761 µM | IC50 (MHH-NB-11; Homo sapiens, MHH-NB-11): 3.44 µM | IC50 (KGN; Homo sapiens, KGN): 0.261 µM | IC50 (Becker; Homo sapiens, Becker): 1.64 µM | IC50 (SW 962; Homo sapiens, SW 962): 0.0657 µM | IC50 (K562; Homo sapiens, K562): 1.67 µM | IC50 (VA-ES-BJ; Homo sapiens, VA-ES-BJ): 0.7 µM | IC50 (ALL-PO; Homo sapiens, ALL-PO): 0.242 µM | IC50 (LB373-MEL-D; Homo sapiens, LB373-MEL-D): 0.0423 µM | IC50 (LB1047-RCC; Homo sapiens, LB1047-RCC): 0.358 µM | IC50 (NCI-H1299; Homo sapiens, NCI-H1299): 0.0613 µM | IC50 (NMC-G1; Homo sapiens, NMC-G1): 0.319 µM | IC50 (HH; Homo sapiens, HH): 0.707 µM | IC50 (KP-N-YS; Homo sapiens, KP-N-YS): 0.789 µM | IC50 (NCI-H526; Homo sapiens, NCI-H526): 2.63 µM | IC50 (A101D; Homo sapiens, A101D): 0.0305 µM | IC50 (KY821; Homo sapiens, KY821): > 16 µM | IC50 (A3-KAW; Homo sapiens, A3-KAW): 0.0857 µM | IC50 (IST-SL1; Homo sapiens, IST-SL1): 6.54 µM | IC50 (HC-1; Homo sapiens, HC-1): 1.93 µM | IC50 (TE-5; Homo sapiens, TE-5): 0.483 µM | IC50 (CCRF-CEM; Homo sapiens, CCRF-CEM): 0.771 µM | IC50 (NCI-H1838; Homo sapiens, NCI-H1838): > 16 µM | IC50 (EW-18; Homo sapiens, EW-18): 0.13 µM | IC50 (SK-UT-1; Homo sapiens, SK-UT-1): 0.136 µM | IC50 (KLE; Homo sapiens, KLE): 1.66 µM | IC50 (GI-ME-N; Homo sapiens, GI-ME-N): 5.01 µM | IC50 (HOP-62; Homo sapiens, HOP-62): 0.0825 µM | IC50 (SK-PN-DW; Homo sapiens, SK-PN-DW): 0.0573 µM | IC50 (GR-ST; Homo sapiens, GR-ST): < 0.0625 µM | IC50 (NCI-H1581; Homo sapiens, NCI-H1581): 2.32 µM | IC50 (GB-1; Homo sapiens, GB-1): 0.164 µM | IC50 (BE-13; Homo sapiens, BE-13): 0.129 µM | IC50 (TGBC24TKB; Homo sapiens, TGBC24TKB): 3.68 µM | IC50 (ES8; Homo sapiens, ES8): 0.116 µM | IC50 (KM12; Homo sapiens, KM12): 0.318 µM

BLEOMYCIN
IC50 (MPP-89; mpp-89): 39.9 µM | IC50 (KU812 cell line; ku812): 68 µM | IC50 (KALS-1; kals-1): 11.7 µM | IC50 (MMAC-SF; mmac-sf): 21.3 µM | IC50 (NKM-1; nkm-1): 0.00765 µM | IC50 (CGTH-W-1; cgth-w-1): 4.3 µM | IC50 (EOL1; eol1): 2.42 µM | IC50 (COR-L88; cor-l88): 73.4 µM | IC50 (D-392MG; d-392mg): 13.6 µM | IC50 (ML-2; ml-2): 0.132 µM | IC50 (ONS-76; ons-76): 0.854 µM | IC50 (LB831-BLC; lb831-blc): 8.38 µM | IC50 (LB2241-RCC; lb2241-rcc): 0.738 µM | IC50 (MHH-NB-11; mhh-nb-11): 2.01 µM | IC50 (KGN; kgn): 0.00371 µM | IC50 (Becker; becker): 26.9 µM | IC50 (SW 962; sw 962): 1.95 µM | IC50 (K562; k562): 126 µM | IC50 (VA-ES-BJ; va-es-bj): 0.26 µM | IC50 (ALL-PO; all-po): 0.986 µM | IC50 (LB373-MEL-D; lb373-mel-d): 56.4 µM | IC50 (LB1047-RCC; lb1047-rcc): 0.0325 µM | IC50 (NCI-H1299; nci-h1299): 0.108 µM | IC50 (NMC-G1; nmc-g1): 0.0119 µM | IC50 (HH; hh): 2.29 µM | IC50 (KP-N-YS; kp-n-ys): 30.3 µM | IC50 (NCI-H526; nci-h526): 1.28 µM | IC50 (A101D; a101d): 0.62 µM | IC50 (KY821; ky821): 471 µM | IC50 (A3-KAW; a3-kaw): 0.717 µM | IC50 (IST-SL1; ist-sl1): 54.6 µM | IC50 (HC-1; hc-1): 0.993 µM | IC50 (TE-5; te-5): 7.96 µM | IC50 (CCRF-CEM; ccrf-cem): 0.0787 µM | IC50 (NCI-H1838; nci-h1838): 24.5 µM | IC50 (EW-18; ew-18): 75.8 µM | IC50 (SK-UT-1; sk-ut-1): 0.00629 µM | IC50 (KLE; kle): 21.2 µM | IC50 (GI-ME-N; gi-me-n): 0.441 µM | IC50 (HOP-62; hop-62): 0.00413 µM | IC50 (SK-PN-DW; sk-pn-dw): 1.45 µM | IC50 (GR-ST; gr-st): 23.1 µM | IC50 (NCI-H1581; nci-h1581): 110 µM | IC50 (GB-1; gb-1): 0.39 µM | IC50 (BE-13; be-13): 0.399 µM | IC50 (TGBC24TKB; tgbc24tkb): 204 µM | IC50 (ES8; es8): 1.4 µM | IC50 (KM12; km12): 9.19 µM
